Key:
Type in all cases: in vivo
[1] = system: ivy-leaved morning glory (Ipomoea hederacea); assay: Test G Post-Emergence Protocol; conditions: Ipomoea, post-emergence, 312 h; for pest or weed control at 15.625 g/ha: 15.625 g ai/ha, evaluated after 13 days (100=total damage to plant; 0=no damage to plant), read-out: Morningglory, Ivy-leaved damage rating; for pest or weed control at 62.5 g/ha: 62.5 g ai/ha, read-out: Morningglory, Ivy-leaved damage rating (100=total damage to plant; 0=no damage to plant); for pest or weed control at 62.5 g/ha / pest or weed control at 250 g/ha: evaluated after 13 days; for pest or weed control at 250 g/ha: 250 g ai/ha, read-out: damage to plant, Morningglory, Ivy-leaved (100=total damage to plant; 0=no damage to plant)
Outline: (§1)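 Post-emergence herbicidal damage, scored visually 0–100 at 13 days. Application at 15.625, 62.5 or 250 g/ha onto 8-day-old plants grown under glasshouse control.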

[2] = system: redroot pigweed (Amaranthus retroflexus); assay: Test G Post-Emergence Protocol; conditions: Amaranthus retroflexus, post-emergence, 312 h; for pest or weed control at 15.625 g/ha: 15.625 g ai/ha, evaluated after 13 days (100=total damage to plant; 0=no damage to plant), read-out: Pigweed, Redroot damage rating; for pest or weed control at 62.5 g/ha: 62.5 g ai/ha, read-out: Pigweed, Redroot damage rating (100=total damage to plant; 0=no damage to plant); for pest or weed control at 62.5 g/ha / pest or weed control at 250 g/ha: evaluated after 13 days; for pest or weed control at 250 g/ha: 250 g ai/ha, read-out: damage to plant, Pigweed, Redroot (100=total damage to plant; 0=no damage to plant)
Outline: as §1

[3] = system: corn (Zea mays); assay: Test G Post-Emergence Protocol; conditions: Zea mays, post-emergence, 312 h; for plant injury at 15.625 g/ha: 15.625 g ai/ha, evaluated after 13 days (100=total damage to plant; 0=no damage to plant), read-out: Corn damage rating; for plant injury at 62.5 g/ha: 62.5 g ai/ha, read-out: Corn damage rating (100=total damage to plant; 0=no damage to plant); for plant injury at 62.5 g/ha / plant injury at 250 g/ha: evaluated after 13 days; for plant injury at 250 g/ha: 250 g ai/ha, read-out: damage to plant, Corn (100=total damage to plant; 0=no damage to plant)
Outline: as §1

[4] = system: velvetleaf (Abutilon theophrasti); assay: Test G Post-Emergence Protocol; conditions: Abutilon theophrasti, post-emergence, 312 h; for pest or weed control at 15.625 g/ha: 15.625 g ai/ha, evaluated after 13 days (100=total damage to plant; 0=no damage to plant), read-out: Velvetleaf damage rating; for pest or weed control at 62.5 g/ha: 62.5 g ai/ha, read-out: Velvetleaf damage rating (100=total damage to plant; 0=no damage to plant); for pest or weed control at 62.5 g/ha / pest or weed control at 250 g/ha: evaluated after 13 days; for pest or weed control at 250 g/ha: 250 g ai/ha, read-out: damage to plant, Velvetleaf (100=total damage to plant; 0=no damage to plant)
Outline: as §1

[5] = system: barnyardgrass (Echinochloa crus-galli); assay: Test G Post-Emergence Protocol; conditions: Echinochloa crus-galli, post-emergence, 312 h; for pest or weed control at 15.625 g/ha: 15.625 g ai/ha, evaluated after 13 days (100=total damage to plant; 0=no damage to plant), read-out: Barnyardgrass damage rating; for pest or weed control at 62.5 g/ha: 62.5 g ai/ha, read-out: Barnyardgrass damage rating (100=total damage to plant; 0=no damage to plant); for pest or weed control at 62.5 g/ha / pest or weed control at 250 g/ha: evaluated after 13 days; for pest or weed control at 250 g/ha: 250 g ai/ha, read-out: damage to plant, Barnyardgrass (100=total damage to plant; 0=no damage to plant)
Outline: as §1

[6] = system: giant foxtail (Setaria faberi); assay: Test G Post-Emergence Protocol; conditions: Setaria faberi, post-emergence, 312 h; for pest or weed control at 15.625 g/ha: 15.625 g ai/ha, evaluated after 13 days (100=total damage to plant; 0=no damage to plant), read-out: Foxtail, Giant damage rating; for pest or weed control at 62.5 g/ha: 62.5 g ai/ha, read-out: Foxtail, Giant damage rating (100=total damage to plant; 0=no damage to plant); for pest or weed control at 62.5 g/ha / pest or weed control at 250 g/ha: evaluated after 13 days; for pest or weed control at 250 g/ha: 250 g ai/ha, read-out: damage to plant, Foxtail, Giant (100=total damage to plant; 0=no damage to plant)
Outline: as §1

[7] = system: ivy-leaved morning glory (Ipomoea hederacea); assay: Test G Pre-Emergence Protocol; conditions: Ipomoea, pre-emergence, 312 h, evaluated after 13 days; for pest or weed control at 15.625 g/ha: 15.625 g ai/ha, read-out: Morning-glory, Ivy-leaved damage rating (100=total damage to plant; 0=no damage to plant); for pest or weed control at 62.5 g/ha: 62.5 g ai/ha, 100=total damage to plant, 0=no damage to plant, read-out: plant damage rating, Morningglory, Ivy-leaved; for pest or weed control at 250 g/ha: 250 g ai/ha, read-out: Morningglory, Ivy-leaved damage rating (100=total damage to plant; 0=no damage to plant)
Outline: (§2)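 One day after sowing, pots are treated with a spray of test compound formulated in acetone/water 50:50 plus 0.5% Tween 20, giving 15.625, 62.5 or 250 g/ha. Evaluation on a 0–100 damage scale follows 13 days of glasshouse growth.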

[8] = system: redroot pigweed (Amaranthus retroflexus); assay: Test G Pre-Emergence Protocol; conditions: Amaranthus retroflexus, pre-emergence, 312 h, evaluated after 13 days; for pest or weed control at 15.625 g/ha: 15.625 g ai/ha; for pest or weed control at 15.625 g/ha / pest or weed control at 250 g/ha: read-out: Pigweed, Redroot damage rating (100=total damage to plant; 0=no damage to plant); for pest or weed control at 62.5 g/ha: 62.5 g ai/ha, 100=total damage to plant, 0=no damage to plant, read-out: plant damage rating, Pigweed, Redroot; for pest or weed control at 250 g/ha: 250 g ai/ha
Outline: as §2

[9] = system: corn (Zea mays); assay: Test G Pre-Emergence Protocol; conditions: Zea mays, pre-emergence, 312 h, evaluated after 13 days; for plant injury at 15.625 g/ha: 15.625 g ai/ha; for plant injury at 15.625 g/ha / plant injury at 250 g/ha: read-out: Corn damage rating (100=total damage to plant; 0=no damage to plant); for plant injury at 62.5 g/ha: 62.5 g ai/ha, 100=total damage to plant, 0=no damage to plant, read-out: plant damage rating, Corn; for plant injury at 250 g/ha: 250 g ai/ha
Outline: as §2

[10] = system: velvetleaf (Abutilon theophrasti); assay: Test G Pre-Emergence Protocol; conditions: Abutilon theophrasti, pre-emergence, 312 h, evaluated after 13 days; for pest or weed control at 15.625 g/ha: 15.625 g ai/ha; for pest or weed control at 15.625 g/ha / pest or weed control at 250 g/ha: read-out: Velvetleaf damage rating (100=total damage to plant; 0=no damage to plant); for pest or weed control at 62.5 g/ha: 62.5 g ai/ha, 100=total damage to plant, 0=no damage to plant, read-out: plant damage rating, Velvetleaf; for pest or weed control at 250 g/ha: 250 g ai/ha
Outline: as §2

[11] = system: barnyardgrass (Echinochloa crus-galli); assay: Test G Pre-Emergence Protocol; conditions: Echinochloa crus-galli, pre-emergence, 312 h, evaluated after 13 days; for pest or weed control at 15.625 g/ha: 15.625 g ai/ha, read-out: Barnyard grass damage rating (100=total damage to plant; 0=no damage to plant); for pest or weed control at 62.5 g/ha: 62.5 g ai/ha, 100=total damage to plant, 0=no damage to plant, read-out: plant damage rating, Barnyardgrass; for pest or weed control at 250 g/ha: 250 g ai/ha, read-out: Barnyardgrass damage rating (100=total damage to plant; 0=no damage to plant)
Outline: as §2

[12] = system: giant foxtail (Setaria faberi); assay: Test G Pre-Emergence Protocol; conditions: Setaria faberi, pre-emergence, 312 h, evaluated after 13 days; for pest or weed control at 15.625 g/ha: 15.625 g ai/ha; for pest or weed control at 15.625 g/ha / pest or weed control at 250 g/ha: read-out: Foxtail, Giant damage rating (100=total damage to plant; 0=no damage to plant); for pest or weed control at 62.5 g/ha: 62.5 g ai/ha, 100=total damage to plant, 0=no damage to plant, read-out: plant damage rating, Foxtail, Giant; for pest or weed control at 250 g/ha: 250 g ai/ha
Outline: as §2

Compound	pest or weed control at 15.625 g/ha [1] [%]	pest or weed control at 62.5 g/ha [1] [%]	pest or weed control at 250 g/ha [1] [%]	pest or weed control at 15.625 g/ha [2] [%]	pest or weed control at 62.5 g/ha [2] [%]	pest or weed control at 250 g/ha [2] [%]	plant injury at 15.625 g/ha [3] [%]	plant injury at 62.5 g/ha [3] [%]	plant injury at 250 g/ha [3] [%]	pest or weed control at 15.625 g/ha [4] [%]	pest or weed control at 62.5 g/ha [4] [%]	pest or weed control at 250 g/ha [4] [%]	pest or weed control at 15.625 g/ha [5] [%]	pest or weed control at 62.5 g/ha [5] [%]	pest or weed control at 250 g/ha [5] [%]	pest or weed control at 15.625 g/ha [6] [%]	pest or weed control at 62.5 g/ha [6] [%]	pest or weed control at 250 g/ha [6] [%]	pest or weed control at 15.625 g/ha [7] [%]	pest or weed control at 62.5 g/ha [7] [%]	also measured
CN1C[C@H](c2ccc(C(F)(F)F)cc2)[C@@H](C(=O)Nc2ccc(F)c(Cl)c2)C1=O (racemic) [Compound 1434]	0	0	0	0	0	20	10	0	10	0	0	10	0	0	20	0	0	30	0	0	pest or weed control at 250 g/ha [7]: 0%; pest or weed control at 15.625 g/ha [8]: 0%; pest or weed control at 62.5 g/ha [8]: 0%; pest or weed control at 250 g/ha [8]: 0%; plant injury at 15.625 g/ha [9]: 0%; plant injury at 62.5 g/ha [9]: 0%; plant injury at 250 g/ha [9]: 0%; pest or weed control at 15.625 g/ha [10]: 0%; pest or weed control at 62.5 g/ha [10]: 0%; pest or weed control at 250 g/ha [10]: 0%; pest or weed control at 15.625 g/ha [11]: 0%; pest or weed control at 62.5 g/ha [11]: 0%; pest or weed control at 250 g/ha [11]: 20%; pest or weed control at 15.625 g/ha [12]: 0%; pest or weed control at 62.5 g/ha [12]: 20%; pest or weed control at 250 g/ha [12]: 50%
CN1C[C@H](c2ccc(C(F)(F)F)cc2)[C@@H](C(=O)Nc2ncc(Cl)cc2Cl)C1=O (racemic) [Compound 1435]	0	0	0	0	30	30	0	0	10	0	0	0	0	0	0	0	0	0	0	0	pest or weed control at 250 g/ha [7]: 0%; pest or weed control at 15.625 g/ha [8]: 0%; pest or weed control at 62.5 g/ha [8]: 0%; pest or weed control at 250 g/ha [8]: 0%; plant injury at 15.625 g/ha [9]: 0%; plant injury at 62.5 g/ha [9]: 0%; plant injury at 250 g/ha [9]: 0%; pest or weed control at 15.625 g/ha [10]: 0%; pest or weed control at 62.5 g/ha [10]: 0%; pest or weed control at 250 g/ha [10]: 0%; pest or weed control at 15.625 g/ha [11]: 0%; pest or weed control at 62.5 g/ha [11]: 0%; pest or weed control at 250 g/ha [11]: 0%; pest or weed control at 15.625 g/ha [12]: 0%; pest or weed control at 62.5 g/ha [12]: 0%; pest or weed control at 250 g/ha [12]: 0%
CN1C[C@H](c2ccc(C(F)(F)F)cc2)[C@@H](C(=O)Nc2nccc(C(F)(F)F)c2F)C1=O (racemic) [Compound 1436]	0	0	0	0	0	0	0	0	0	0	0	0	0	0	0	0	0	0	0	0	pest or weed control at 250 g/ha [7]: 0%; pest or weed control at 15.625 g/ha [8]: 0%; pest or weed control at 62.5 g/ha [8]: 0%; pest or weed control at 250 g/ha [8]: 0%; plant injury at 15.625 g/ha [9]: 0%; plant injury at 62.5 g/ha [9]: 0%; plant injury at 250 g/ha [9]: 0%; pest or weed control at 15.625 g/ha [10]: 0%; pest or weed control at 62.5 g/ha [10]: 0%; pest or weed control at 250 g/ha [10]: 0%; pest or weed control at 15.625 g/ha [11]: 0%; pest or weed control at 62.5 g/ha [11]: 0%; pest or weed control at 250 g/ha [11]: 0%; pest or weed control at 15.625 g/ha [12]: 0%; pest or weed control at 62.5 g/ha [12]: 0%; pest or weed control at 250 g/ha [12]: 0%

From patent US12077503B2, “Substituted cyclic amides and their use as herbicides” (FMC CORPORATION, priority 2015, dated 2024)
